Reference: the supplement of paper PMC5722580

What was measured:
[1] = system: HEK293-SIE STAT3 Y640F; test: drug sensitivity score (inhibition of STAT3 luciferase reporter); higher = stronger inhibition; conditions: 6 h; IL6 0 ng/ml
Method: (§1)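 HEK293 cells with a STAT3-inducible (SIE) luciferase reporter, stably expressing WT STAT3 (IL6 100 ng/ml) or Y640F STAT3 (no IL6), were incubated 6 h with drugs in 384-well plates (5-8 concentrations over a 10,000-fold range); luciferase was read with ONE-Glo. DSS is a normalised area under the dose-response curve; values are the mean of two experiments.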

[2] = system: HEK293-SIE STAT3 WT; test: as above; conditions: 6 h; STAT3: WT; IL6 100 ng/ml
Method: as §1

[3] = system: KHYG-1; test: drug sensitivity score (viability inhibition); higher = more sensitive; conditions: 72 h; IL2 2.5 ng/ml
Method: (§2)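 NK-cell leukemia/lymphoma cell lines (3,000 cells/well) were cultured with IL2 2.5 ng/ml in 384-well drug plates (5-8 concentrations over a 10,000-fold range) for 72 h at 37 C; viability was read with CellTiter-Glo. DSS is a normalised area under the dose-response curve; the experiment was repeated twice.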

[4] = system: YT; test: as above; conditions: 72 h; IL2 2.5 ng/ml
Method: as §2

[5] = system: KAI3; test: as above; conditions: 72 h; IL2 2.5 ng/ml
Method: as §2

[6] = system: NKL; test: as above; conditions: 72 h; IL2 2.5 ng/ml
Method: as §2

[7] = system: NK-92; test: as above; conditions: 72 h; IL2 2.5 ng/ml
Method: as §2

[8] = system: NK-YS; test: as above; conditions: 72 h; IL2 2.5 ng/ml
Method: as §2

[9] = system: SNK6; test: as above; conditions: 72 h; IL2 2.5 ng/ml
Method: as §2

| SMILES | drug sensitivity score [1] [DSS] | drug sensitivity score [2] [DSS] | drug sensitivity score [3] [DSS] | drug sensitivity score [4] [DSS] | drug sensitivity score [5] [DSS] | drug sensitivity score [6] [DSS] | drug sensitivity score [7] [DSS] | drug sensitivity score [8] [DSS] | drug sensitivity score [9] [DSS] |
| --- | --- | --- | --- | --- | --- | --- | --- | --- | --- |
| Cc1sc2c(c1C)C(c1ccc(Cl)cc1)=N[C@@H](CC(=O)OC(C)(C)C)c1nnc(C)n1-2 [(+)-JQ1] | 0 | 16.6 | 18.9 | 11.1 | 4.93 | 13.7 | 3.16 | 15.9 | 12.4 |
| CC(=O)OC[C@H]1O[C@@H]([S-])[C@H](OC(C)=O)[C@@H](OC(C)=O)[C@@H]1OC(C)=O.CCP(CC)CC.[Au+] [Auranofin] | 2.05 | 5.9 | 5.84 | 8.63 | 2.72 | 8.44 | 4.86 | 8.08 | 8.28 |
| O=C(NC[C@H](O)CO)c1ccncc1Nc1ccc(I)cc1F [Pimasertib] | 2.03 | 3.4 | 15.8 | 0.0567 | 4.56 | 11 | 0 | 2.47 | 0.301 |
| COC(=O)C[C@](O)(CCCC(C)(C)O)C(=O)O[C@@H]1C(OC)=C[C@]23CCCN2CCc2cc4c(cc2[C@H]13)OCO4 [homoharringtonine] | 36.6 | 39 | 29.6 | 34.5 | 33.4 | 32.2 | 31.2 | 32.5 | 34.6 |
| C[C@H]1C[C@@H]2[C@H]([C@@H](O)C[C@@]3(C)[C@H]2CC[C@]3(O)C(=O)CO)[C@@]2(C)C=CC(=O)C=C12 [Methylprednisolone] | 0.4 | 0 | 10.5 | 8.81 | 1.27 | 16 | 0 | 3.19 | 0.065 |
| CC1(C)CCC(CN2CCN(c3ccc(C(=O)NS(=O)(=O)c4ccc(NCC5CCOCC5)c([N+](=O)[O-])c4)c(Oc4cnc5[nH]ccc5c4)c3)CC2)=C(c2ccc(Cl)cc2)C1 [Venetoclax] | 1.5 | 0.9 | 9.65 | 11.6 | 29.2 | 11.9 | 3.59 | 10.3 | 24.9 |
| CC1(COc2ccc3c(c2)ncn3-c2ccc3cccc(N4CCC(N)CC4)c3n2)COC1 [Crenolanib] | 4.25 | 3.05 | 7.73 | 7.98 | 5.4 | 10.3 | 9.79 | 7.55 | 9.96 |
| COc1ccccc1S(=O)(=O)Nc1ccc2c(c1)CN(C)C(=O)N2 [PFI-1] | 0 | 6.65 | 7.25 | 3.24 | 1.7 | 4.02 | 0.03 | 6.22 | 4.16 |
| O=C(Cc1ccc(-c2ccc(OCCN3CCOCC3)cc2)cn1)NCc1ccccc1 [KX2-391] | 0 | 0 | 31.6 | 31.7 | 22.4 | 31.2 | 32.4 | 28.1 | 31.7 |
| Cn1cc(CNCC2CCN(c3ncc(C(=O)NO)cn3)CC2)c2ccccc21 [Quisinostat] | 1.9 | 2.3 | 20.4 | 14.2 | 16.1 | 22 | 13.8 | 22 | 13.3 |
| Cn1c(=O)n(-c2ccc(C(C)(C)C#N)cc2)c2c3cc(-c4cnc5ccccc5c4)ccc3ncc21 [Dactolisib] | 12.8 | 15.1 | 14 | 13.4 | 10.3 | 18.2 | 12 | 15.8 | 8.33 |
| CN(C)C[C@@H]1CCn2cc(c3ccccc32)C2=C(C(=O)NC2=O)c2cn(c3ccccc23)CCO1 [Ruboxistaurin] | 0.3 | 3.95 | 9.45 | 4.62 | 4.46 | 7.79 | 4.64 | 8.41 | 4.54 |
| CCNC(=O)c1noc(-c2cc(C(C)C)c(O)cc2O)c1-c1ccc(CN2CCOCC2)cc1 [Luminespib] | 12.8 | 16.3 | 24 | 18.6 | 25.6 | 29.1 | 27.4 | 26.9 | 19.6 |
| CN[C@@H]1C[C@H]2O[C@@](C)([C@@H]1OC)n1c3ccccc3c3c4c(c5c6ccccc6n2c5c31)C(=O)N[C@H]4O [UCN-01] | 20.3 | 22.9 | 30.7 | 20.5 | 29.8 | 26.9 | 27.3 | 28.7 | 30.1 |
| Cc1c2oc3c(C)ccc(C(=O)N[C@@H]4C(=O)N[C@H](C(C)C)C(=O)N5CCC[C@H]5C(=O)N(C)CC(=O)N(C)[C@@H](C(C)C)C(=O)O[C@@H]4C)c3nc-2c(C(=O)N[C@@H]2C(=O)N[C@H](C(C)C)C(=O)N3CCC[C@H]3C(=O)N(C)CC(=O)N(C)[C@@H](C(C)C)C(=O)O[C@@H]2C)c(N)c1=O [Dactinomycin] | 18.4 | 18.9 | 29.3 | 35 | 23.8 | 36.5 | 16.5 | 38.2 | 32.2 |
| CO[C@H]1C[C@@H]2CC[C@@H](C)[C@@](O)(O2)C(=O)C(=O)N2CCCC[C@H]2C(=O)O[C@H]([C@H](C)C[C@@H]2CC[C@@H](OC(=O)C(C)(CO)CO)[C@H](OC)C2)CC(=O)[C@H](C)/C=C(\C)[C@@H](O)[C@@H](OC)C(=O)[C@H](C)C[C@H](C)/C=C/C=C/C=C/1C [Temsirolimus] | 11.8 | 8.55 | 10.1 | 14 | 7.48 | 20.6 | 4.18 | 18.6 | 11.6 |
| N#C/C(=C\c1ccc(O)c(O)c1)C(=O)NCc1ccccc1 [AG490] | 1.9 | 1.18 | 8.13 | 8.84 | 8.31 | 10.3 | 9.21 | 13.3 | 10.2 |
